Key:
Format in all cases: cell-based
[1] = system: FGF-7; test: Increased expression of FGF-7 in human dermal papilla cells by quantitative RT-PCR
Procedure: The human dermal papilla cells (DPC) used in the experiment consisted of DPC originating in a person that were placed in frozen storage after being isolated and cultured from human scalp provided as a by-product of plastic surgery. […] Only MEM (serum-free) was used for the control cells, and these cells were treated in the same manner. mRNA was extracted from the cultured cells with MagNAPureLC (Roche Diagnostics) at 2, 4, 8 and 24 hours after addition of adenosine followed by cDNA synthesis using the SuperScriptII reverse transcriptase kit (Invitrogen). The expressed amounts of mRNA were compared by real-time PCR using the fluorescent pigment CyberGreen I, which binds to the minor grooves of double-stranded DNA, with the LightCycler-FastStart DNA Master SYBR Green I Kit (Roche Diagnostics) by using the synthesized cDNA as a template. […] This fluorescent intensity reflects the amount of PCR product at that point in time. The amount of expressed gene was hypothesized to be that which is amplified while satisfying Y=A×2^X for the PCR product Y of the initial amount of template A during the exponential amplification period of the PCR product relative to the number of PCR cycles X, and a relative value was calculated from the number of cycles needed to obtain a given amount of PCR product. The following indicates the FGF-7 amplification primers used in this study. An RT-PCR experiment was carried out in the same manner as Experiment 1 with the exception of using two concentrations of adenosine consisting of 10 μM and 100 μM and setting the duration of adenosine treatment to 3 hours. […] The results are shown in FIGS. 4, 5 and 6, respectively.

[2] = system: FGF-7; test: Increased expression of FGF-7 in human immortalized dermal papilla cells by quantitative RT-PCR; settings: human immortalized dermal papilla cells (SV40 large T antigen), adenosine, 2 hours, FIG. 8
Procedure: mRNA was extracted from the cultured cells with MagNAPureLC (Roche Diagnostics) at 2, 4, 8 and 24 hours after addition of adenosine followed by cDNA synthesis using the SuperScriptII reverse transcriptase kit (Invitrogen). The expressed amounts of mRNA were compared by real-time PCR using the fluorescent pigment CyberGreen I, which binds to the minor grooves of double-stranded DNA, with the LightCycler-FastStart DNA Master SYBR Green I Kit (Roche Diagnostics) by using the synthesized cDNA as a template. […] The amount of expressed gene was hypothesized to be that which is amplified while satisfying Y=A×2^X for the PCR product Y of the initial amount of template A during the exponential amplification period of the PCR product relative to the number of PCR cycles X, and a relative value was calculated from the number of cycles needed to obtain a given amount of PCR product. […]

[3] = system: FGF-7; test: Increased expression of FGF-7 in human outer root sheath cells by quantitative RT-PCR; settings: adenosine 10 or 100 μM, 3 hours, FIG. 9
Procedure: The expressed amounts of mRNA were compared by real-time PCR using the fluorescent pigment CyberGreen I, which binds to the minor grooves of double-stranded DNA, with the LightCycler-FastStart DNA Master SYBR Green I Kit (Roche Diagnostics) by using the synthesized cDNA as a template. More specifically, a total volume of 20 μl of reaction liquid (MgCl2: 2 mM, forward and reverse primer: 0.25 μM each) was prepared according to the manual provided using the LightCycler-FastStart DNA Master SYBR Green I Kit (Roche Diagnostics), and a PCR reaction was carried out with the LightCycler (enzyme activation: 95° C./10 minutes; thermal denaturation: 95° C./15 seconds; annealing: 58° C./5 seconds; elongation reaction: 72° C./10 seconds; 40 cycles of thermal denaturation to elongation reaction) followed by monitoring fluorescent intensity at completion of the elongation reaction of each cycle. This fluorescent intensity reflects the amount of PCR product at that point in time. The amount of expressed gene was hypothesized to be that which is amplified while satisfying Y=A×2^X for the PCR product Y of the initial amount of template A during the exponential amplification period of the PCR product relative to the number of PCR cycles X, and a relative value was calculated from the number of cycles needed to obtain a given amount of PCR product. […]

[4] = 100 μM, 2 hours, FIGS. 4, 5 and 6
[5] = CCPA 100 μM, C1-IB-MECA 50 μM, NECA 10 μM, 3 hours, FIG. 3

Row | SMILES | inhibition of increased FGF-7 expression by the adenosine receptor inhibitor 8-SPT ([1]; 100 μM, 2 hours) | expression of FGF-7 (relative amount) [1, 4] | expression of FGF-7 (relative amount) [1, 5] | other results
1 | Cc1ccc(C2Oc3ccccc3C(=O)C2C)cc1 (stereo not drawn) [3,4′-dimethylflavanone] | not observed | increased expression of FGF-7 | – | –
2 | CC1C(=O)c2ccccc2OC1c1ccccc1 (stereo not drawn) [3-methylflavanone] | not observed | increased expression of FGF-7 | – | –
3 | OC[C@H]1O[C@@H](n2cnc3c(NC4CCCC4)nc(Cl)nc32)[C@H](O)[C@@H]1O [CCPA, 2-chloro-N^6-cyclopentyladenosine, reference compound] | – | – | significantly increased | –
4 | CCNC(=O)[C@H]1O[C@@H](n2cnc3c(N)ncnc32)[C@H](O)[C@@H]1O [NECA, N-ethylcarboxyamidoadenosine, reference compound] | – | – | significantly increased | –
5 | Nc1ncnc2c1ncn2[C@@H]1O[C@H](CO)[C@@H](O)[C@H]1O [adenosine] | – | – | – | expression of FGF-7 (relative amount) ([1]; adenosine 10 μM and 100 μM, 3 hours, FIG. 2): increase dependent on the concentration of adenosine; expression of FGF-7 (relative value) ([1]; adenosine 100 μM, mRNA at 2, 4, 8 and 24 hours, FIG. 1): increased considerably; expression of FGF-7 (relative amount) [2]: increased expression of FGF-7; expression of FGF-7 (relative amount) [3]: prominent increase in expression of FGF-7
6 | O=C1CC(c2ccccc2)Oc2ccccc21 (stereo not drawn) [flavanone, reference compound] | not observed | increased expression of FGF-7 | – | –

Reference: US20070299032A1, “Method and Composition for Thickening Hair” (Shiseido Company, Ltd., priority 2003, published 2007)
